ChEMBL document CHEMBL6178018, “Design of an Oral STING Agonist through Intramolecular Hydrogen Bond Ring Mimicking to Achieve Complete Tumor Regression” (J Med Chem, 2025)
Activity calls are given as the source filed them. The calls are words filed in the database; no cut-off is given here.

Columns and labels:
[1] = AUC in mouse at 10 mg/kg, po by LC-MS/MS analysis; type: ADME, organism-based; conditions: in vivo
[2] = Clearance in mouse at 10 mg/kg, po by LC-MS/MS analysis; type: ADME, organism-based; conditions: in vivo
[3] = tested on: MC-38; assay: In vivo antitumor activity against mouse MC-38 cells inoculated in C57BL/6 mouse assessed as increase in IFN-gamma level in serum at 60 mg/kg, po Q3D co-administered with anti-PD1 measured for 15 to 20 days; type: functional, organism-based; conditions: time 15-20 day
[4] = tested on: MC-38; assay: In vivo antitumor activity against mouse MC-38 cells inoculated in C57BL/6 mouse assessed as increase in IL-6 level in tumor at 60 mg/kg, po Q3D co-administered with anti-PD1 measured for 15 to 20 days; type: functional, organism-based; conditions: time 15-20 day
[5] = Stability of the compound in mouse plasma assessed as half life by LC-MS/MS analysis; type: ADME, cell-free
[6] = Chemical stability of the compound in MeOH/H2O solvent assessed as half life by LC-MS/MS analysis; type: physicochemical
[7] = tested on: THP-1; assay: Induction of interferon response in STING knock out human THP-1 cells assessed as fold change in stimulation activity at 13 to 25 uM measured after 24 hrs incubation by QUANTI-Luc4 based microplate reader; type: functional, cell-based; conditions: dose 13-25 µM
[8] = tested on: MC-38; assay: In vivo antitumor activity against mouse MC-38 cells inoculated in C57BL/6 mouse assessed as long-term immunological memory by measuring tumor recurrence at 60 mg/kg, po Q3D measured for 15 to 20 days followed by cured rechallenged with MC-38 cells after 84 days of first dose and measured for additional 74 days (total 157 days observation); type: functional, organism-based; conditions: time 157.0 day
[9] = tested on: MC-38; assay: In vivo antitumor activity against mouse MC-38 cells inoculated in C57BL/6 mouse assessed as complete tumor regression (CR) at 60 mg/kg, po Q3D measured for 15 to 20 days; type: functional, organism-based; conditions: time 15-20 day
[10] = tested on: MC-38; assay: In vivo antitumor activity against mouse MC-38 cells inoculated in C57BL/6 mouse assessed as increase in IL-6 level in serum at 60 mg/kg, po Q3D co-administered with anti-PD1 measured for 15 to 20 days; type: functional, organism-based; conditions: time 15-20 day
[11] = target: T1, Stimulator of interferon genes protein (Mus musculus, UniProt Q3TBT3); assay: Agonist activity at mouse STING expressed in human THP1-Dual cells assessed as fold change in stimulation activity measured after 24 hrs incubation by QUANTI-Luc4 based microplate reader; type: cell-based
T1 sequence (Q3TBT3 whole entry): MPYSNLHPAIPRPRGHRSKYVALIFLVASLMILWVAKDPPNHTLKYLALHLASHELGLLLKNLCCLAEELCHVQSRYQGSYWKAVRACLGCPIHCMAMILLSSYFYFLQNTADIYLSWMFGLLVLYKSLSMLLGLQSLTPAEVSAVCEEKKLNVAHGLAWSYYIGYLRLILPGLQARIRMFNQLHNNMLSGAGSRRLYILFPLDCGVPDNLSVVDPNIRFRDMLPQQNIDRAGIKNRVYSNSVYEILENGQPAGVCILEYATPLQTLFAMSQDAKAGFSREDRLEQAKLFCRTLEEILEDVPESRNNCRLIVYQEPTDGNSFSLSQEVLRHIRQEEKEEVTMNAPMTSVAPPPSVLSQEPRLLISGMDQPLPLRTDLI

[12] = Clearance in mouse at 5 mg/kg, iv by LC-MS/MS analysis; type: ADME, organism-based; conditions: in vivo
[13] = target: T2, Stimulator of interferon genes protein (Homo sapiens, UniProt Q86WV6); assay: Agonist activity at STING R232 mutant (unknown origin) expressed in human THP1-Dual cells assessed as fold change in stimulation activity measured after 24 hrs incubation by QUANTI-Luc4 based microplate reader; type: cell-based
[14] = target: T3, Interferon regulatory factor 3 (Homo sapiens) (UniProt Q14653); assay: Induction of IRF3 phosphorylation in human THP1-Blue ISG cells at 13 to 50 uM measured after 3 hrs by Western blot analysis; type: cell-based; conditions: filed as agonist, dose 13-50 µM
T3 sequence (whole entry): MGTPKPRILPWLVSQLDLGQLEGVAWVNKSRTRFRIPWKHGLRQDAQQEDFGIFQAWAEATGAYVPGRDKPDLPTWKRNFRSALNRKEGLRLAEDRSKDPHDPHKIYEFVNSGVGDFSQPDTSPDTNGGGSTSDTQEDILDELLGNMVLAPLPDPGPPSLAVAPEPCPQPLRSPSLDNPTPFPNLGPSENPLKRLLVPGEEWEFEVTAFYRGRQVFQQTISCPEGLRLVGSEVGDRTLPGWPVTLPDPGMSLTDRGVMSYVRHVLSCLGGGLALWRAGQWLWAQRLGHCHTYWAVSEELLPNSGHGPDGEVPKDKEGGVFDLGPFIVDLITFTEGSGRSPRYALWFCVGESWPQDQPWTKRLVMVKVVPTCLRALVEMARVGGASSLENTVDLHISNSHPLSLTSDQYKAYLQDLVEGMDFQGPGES

[15] = tested on: MC-38; assay: In vivo antitumor activity against mouse MC-38 cells inoculated in C57BL/6 mouse assessed as complete tumor regression (CR) at 60 mg/kg, po two doses measured for 15 to 20 days relative to total number of mouse; type: functional; conditions: time 15-20 day
[16] = tested on: MC-38; assay: In vivo antitumor activity against mouse MC-38 cells inoculated in C57BL/6 mouse assessed as increase in CXCL10 level in serum at 60 mg/kg, po Q3D co-administered with anti-PD1 measured for 15 to 20 days; type: functional, organism-based; conditions: time 15-20 day
[17] = tested on: THP-1; assay: Induction of interferon secretion in human THP-1 cells assessed as IFN-beta level at 13 uM measured after 24 hrs by ELISA; type: functional, cell-based
[18] = AUC in mouse at 5 mg/kg, iv by LC-MS/MS analysis; type: ADME, organism-based; conditions: in vivo
[19] = tested on: MC-38; assay: In vivo antitumor activity against mouse MC-38 cells inoculated in C57BL/6 mouse assessed as increase in moue survival time at 60 mg/kg, po Q3D co-administered with anti-PD1 measured for 15 to 20 days; type: functional, organism-based; conditions: time 15-20 day
[20] = Metabolic stability in mouse liver microsomes assessed as half life at 10 uM measured up to 60 mins by LC-MS/MS analysis; type: ADME, Microsome
[21] = Cmax in mouse at 5 mg/kg, iv by LC-MS/MS analysis; type: ADME, organism-based; conditions: in vivo
[22] = Oral bioavailability in mouse at 10 mg/kg by LC-MS/MS analysis; type: ADME, organism-based; conditions: in vivo
[23] = Half life in mouse at 10 mg/kg, po by LC-MS/MS analysis; type: ADME, organism-based; conditions: in vivo
[24] = tested on: MC-38; assay: In vivo antitumor activity against mouse MC-38 cells inoculated in C57BL/6 mouse assessed as as increase in moue survival time at 60 mg/kg, po Q3D measured for 15 to 20 days; type: functional, organism-based; conditions: time 15-20 day
[25] = Metabolic stability in human liver microsomes assessed as half life at 10 uM measured up to 60 mins by LC-MS/MS analysis; type: ADME, Microsome
[26] = tested on: THP1-Blue ISG; assay: Induction of STING phosphorylation in human THP1-Blue ISG cells at 13 to 50 uM measured after 3 hrs by Western blot analysis; type: cell-based; conditions: filed as agonist, dose 13-50 µM
[27] = target: T2, Stimulator of interferon genes protein; assay: Agonist activity at human STING HAQ variant in human THP1-Blue ISG cells assessed as fold change in stimulation activity measured after 24 hrs incubation by QUANTI-Blue based microplate reader; type: cell-based
[28] = Cmax in mouse at 10 mg/kg, po by LC-MS/MS analysis; type: ADME, organism-based; conditions: in vivo
[29] = tested on: MC-38; assay: In vivo antitumor activity against mouse MC-38 cells inoculated in C57BL/6 mouse assessed as increase in CXCL10 level in tumor at 60 mg/kg, po Q3D co-administered with anti-PD1 measured for 15 to 20 days; type: functional, organism-based; conditions: time 15-20 day
[30] = Stability of the compound in human plasma assessed as half life by LC-MS/MS analysis; type: ADME, cell-free
[31] = tested on: MC-38; assay: In vivo antitumor activity against mouse MC-38 cells inoculated in C57BL/6 mouse assessed as complete tumor regression (CR) at 60 mg/kg, po Q3D co-administered with anti-PD1 measured for 15 to 20 days; type: functional; conditions: time 15-20 day
[32] = Half life in mouse at 5 mg/kg, iv by LC-MS/MS analysis; type: ADME, organism-based; conditions: in vivo
[33] = tested on: MC-38; assay: In vivo antitumor activity against mouse MC-38 cells inoculated in C57BL/6 mouse assessed as increase in IFN-gamma level in tumor at 60 mg/kg, po Q3D co-administered with anti-PD1 measured for 15 to 20 days; type: functional, organism-based; conditions: time 15-20 day

T2 sequence (Q86WV6 whole entry, looked up, change not shown): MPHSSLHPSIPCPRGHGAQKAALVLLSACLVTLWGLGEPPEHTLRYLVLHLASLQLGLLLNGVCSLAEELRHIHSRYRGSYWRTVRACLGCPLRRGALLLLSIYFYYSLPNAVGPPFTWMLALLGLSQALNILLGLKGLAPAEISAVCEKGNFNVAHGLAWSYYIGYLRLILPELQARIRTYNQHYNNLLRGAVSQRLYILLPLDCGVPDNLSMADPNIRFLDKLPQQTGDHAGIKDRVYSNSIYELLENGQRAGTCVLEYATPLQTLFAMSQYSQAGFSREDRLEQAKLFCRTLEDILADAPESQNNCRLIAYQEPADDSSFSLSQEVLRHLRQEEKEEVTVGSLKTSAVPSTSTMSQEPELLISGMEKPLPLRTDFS

Question: With `CC[C@H](CNC(=O)c1[se]c2cc(OC)c(OC)cc2c1F)C(=O)O` as the molecule, how does the AUC [1] read?
Answer: 23800 ng·h/mL

Question: What about the CL/F [2] of the same molecule?
Answer: 6.94 mL/min/kg

Question: What about the Activity [3] of the same molecule?
Answer: Active

Question: And the Activity [4]?
Answer: Active

Question: What about the half-life [5] of the same molecule?
Answer: > 1 h

Question: And the half-life [6]?
Answer: 0.8 h

Question: What about the Activity [7] of the same molecule?
Answer: inactive

Question: What about the Activity [8] of the same molecule?
Answer: Active

Question: And the Activity [9]?
Answer: Active

Question: And the Activity [10]?
Answer: Active

Question: And the EC50 [11]?
Answer: 9.3 µM

Question: And the clearance [12]?
Answer: 4.04 mL/min/kg

Question: What about the EC50 [13] of the same molecule?
Answer: 9 µM

Question: And the Activity [14]?
Answer: Active

Question: What about the Activity [15] of the same molecule?
Answer: 60%

Question: What about the Activity [16] of the same molecule?
Answer: Active

Question: What about the Activity [17] of the same molecule?
Answer: Active

Question: And the AUC [18]?
Answer: 20600 ng·h/mL

Question: What about the Activity [19] of the same molecule?
Answer: Active

Question: What about the half-life at 10 µM [20] of the same molecule?
Answer: > 1 h

Question: What about the Cmax [21] of the same molecule?
Answer: 48400 ng/mL

Question: And the bioavailability [22]?
Answer: 58%

Question: What about the half-life [23] of the same molecule?
Answer: 1.1 h

Question: And the Activity [24]?
Answer: Active

Question: And the half-life at 10 µM [25]?
Answer: > 1 h

Question: What about the Activity [26] of the same molecule?
Answer: Active

Question: And the EC50 [27]?
Answer: 3.3 µM

Question: And the Cmax [28]?
Answer: 20600 ng/mL

Question: What about the Activity [29] of the same molecule?
Answer: Active

Question: And the half-life [30]?
Answer: > 1 h

Question: And the Activity [31]?
Answer: Active; Compound Effect Significantly Exceeded Than Its Parent Compound Zsa-52 (Cr = 60%)

Question: What about the half-life [32] of the same molecule?
Answer: 0.6 h

Question: And the Activity [33]?
Answer: Active
